Reference: patent US20240124460A1, “METHODS AND COMPOSITIONS FOR TARGETED PROTEIN DEGRADATION” (Ranok Therapeutics (Hangzhou) Co. Ltd., priority 2020, published 2024)

How the values were obtained:
[1] = tested on: MV-4-11 human acute myeloid leukemia; assay: MV-4-11 CCK-8 proliferation assay; type: cell-based; details: Homo sapiens, MV4-11; MV-4-11 cells, 72 hr
Experimental: (§1) The following cancer cell lines were employed: A549 human lung carcinoma (ATCC, #CCL-185); BT-474 human breast carcinoma (ATCC, #HTB-20); MDA-MB-231 human breast adenocarcinoma (ATCC, #CRM−HTB-26); MDA-MB-468 human breast adenocarcinoma (ATCC, #HTB-132); MV-4-11 human acute myeloid leukemia (ATCC, #CRL-9591); and U-87 MG human glioblastoma (ATCC, #HTB-14). Cell lines were cultured essentially according to ATCC recommendations.
(§2) 3-fold serial dilutions of each test compound were prepared ranging from 20 μM to 1.02 nM.
(§3) % Inhibition=100−(D−B)/(S−B)*100%. • S: Absorbance of cells treated with DMSO • D: Absorbance of compound-treated cells • B: Absorbance of medium with DMSO without cells

[2] = tested on: U-87 MG human glioblastoma; assay: U87 MG CCK-8 proliferation assay; type: cell-based; details: Homo sapiens, U-87 MG, 72 h, U-87 MG cells, read-out: U87MG CCK-8
Experimental: as §1, §2, §3

CCOc1cc(N2CCC(C(=O)N3CCC(Oc4ccc(-c5ccc(NC(=O)c6ccc(OC)c(-c7cccc(OC)c7)c6)cc5)cc4)CC3)CC2)ccc1Nc1ncc2c(n1)N(S(C)(=O)=O)c1ccccc1C(=O)N2C [Compound 144, N-(4′-((1-(1-(3-ethoxy-4-((5-methyl-11-(methylsulfonyl)-6-oxo-6,11-dihydro-5H-benzo[e]pyrimido[5,4-b][1,4]diazepin-2-yl)amino)phenyl)piperidine-4-carbonyl)piperidin-4-yl)oxy)-[1,1′-biphenyl]-4-yl)-3′,6-dimethoxy-[1,1′-biphenyl]-3-carboxamide]
EC50 [1]: > 1000 nM | EC50 [2]: > 1000 nM

CCOc1cc(N2CCC(C(=O)N3CCC(COc4ccc(-c5ccc(NC(=O)c6ccc(OC)c(-c7cccc(OC)c7)c6)cc5)cc4)CC3)CC2)ccc1Nc1ncc2c(n1)N(C)c1ccccc1C(=O)N2C [Compound 145, N-(4′-((1-(1-(4-((5,11-dimethyl-6-oxo-6,11-dihydro-5H-benzo[e]pyrimido[5,4-b][1,4]diazepin-2-yl)amino)-3-ethoxyphenyl)piperidine-4-carbonyl)piperidin-4-yl)methoxy)-[1,1′-biphenyl]-4-yl)-3′,6-dimethoxy-[1,1′-biphenyl]-3-carboxamide]
EC50 [1]: > 1000 nM | EC50 [2]: > 1000 nM

CCOc1cc(N2CCC(C(=O)N3CCC(COc4ccc(-c5ccc(NC(=O)c6ccc(OC)c(-c7cccc(OC)c7)c6)cc5)cc4)CC3)CC2)ccc1Nc1ncc2c(n1)N(S(C)(=O)=O)c1ccccc1C(=O)N2C [Compound 146, N-(4′-((1-(1-(3-ethoxy-4-((5-methyl-11-(methylsulfonyl)-6-oxo-6,11-dihydro-5H-benzo[e]pyrimido[5,4-b][1,4]diazepin-2-yl)amino)phenyl)piperidine-4-carbonyl)piperidin-4-yl)methoxy)-[1,1′-biphenyl]-4-yl)-3′,6-dimethoxy-[1,1′-biphenyl]-3-carboxamide]
EC50 [1]: > 1000 nM | EC50 [2]: > 1000 nM

CCOc1cc(N2CCC(C(=O)NCCCOc3ccc(-c4ccc(NC(=O)c5ccc(OC)c(-c6cccc(OC)c6)c5)cc4)cc3)CC2)ccc1Nc1ncc2c(n1)N(C)c1ccccc1C(=O)N2C [Compound 147, N-(3-((4′-(3′,6-dimethoxy-[1,1′-biphenyl]-3-carboxamido)-[1,1′-biphenyl]-4-yl)oxy)propyl)-1-(4-((5,11-dimethyl-6-oxo-6,11-dihydro-5H-benzo[e]pyrimido[5,4-b][1,4]diazepin-2-yl)amino)-3-ethoxyphenyl)piperidine-4-carboxamide]
EC50 [1]: > 1000 nM | EC50 [2]: > 1000 nM

CCOc1cc(N2CCC(C(=O)NCCCOc3ccc(-c4ccc(NC(=O)c5ccc(OC)c(-c6cccc(OC)c6)c5)cc4)cc3)CC2)ccc1Nc1ncc2c(n1)N(S(C)(=O)=O)c1ccccc1C(=O)N2C [Compound 148, N-(3-((4′-(3′,6-dimethoxy-[1,1′-biphenyl]-3-carboxamido)-[1,1′-biphenyl]-4-yl)oxy)propyl)-1-(3-ethoxy-4-((5-methyl-11-(methylsulfonyl)-6-oxo-6,11-dihydro-5H-benzo[e]pyrimido[5,4-b][1,4]diazepin-2-yl)amino)phenyl)piperidine-4-carboxamide]
EC50 [1]: > 1000 nM | EC50 [2]: > 1000 nM

CCOc1cc(N2CCC(C(=O)NCCCOc3ccc(-c4ccc(NC(=O)c5ccc(OC)c(-c6cccc(OC)c6)c5)cc4)c(OCCCN(C)C)c3)CC2)ccc1Nc1ncc2c(n1)N(C)c1ccccc1C(=O)N2C [Compound 152, N-(3-((4′-(3′,6-dimethoxy-[1,1′-biphenyl]-3-carboxamido)-2-(3-(dimethylamino)propoxy)-[1,1′-biphenyl]-4-yl)oxy)propyl)-1-(4-((5,11-dimethyl-6-oxo-6,11-dihydro-5H-benzo[e]pyrimido[5,4-b][1,4]diazepin-2-yl)amino)-3-ethoxyphenyl)piperidine-4-carboxamide]
EC50 [1]: > 1000 nM | EC50 [2]: > 1000 nM

CCOc1cc(N2CCC(C(=O)N3CCN(Cc4ccc(-n5c(O)nnc5-c5cc(C(C)C)c(O)cc5O)cc4)CC3)CC2)ccc1Nc1ncc2c(n1)N(S(C)(=O)=O)c1ccccc1C(=O)N2C [Compound 159, 2-((4-(4-(4-(4-(3-(2,4-dihydroxy-5-isopropylphenyl)-5-hydroxy-4H-1,2,4-triazol-4-yl)benzyl)piperazine-1-carbonyl)piperidin-1-yl)-2-ethoxyphenyl)amino)-5-methyl-11-(methylsulfonyl)-5,11-dihydro-6H-benzo[e]pyrimido[5,4-b][1,4]diazepin-6-one]
EC50 [1]: < 100 nM | EC50 [2]: < 100 nM

CCOc1cc(N2CCC(C(=O)N3CCN(Cc4ccc(-n5c(O)nnc5-c5cc(C(C)C)c(O)cc5O)cc4)CC3)CC2)ccc1N(CC)c1ncc2c(n1)N(S(C)(=O)=O)c1ccccc1C(=O)N2C [Compound 160, 2-((4-(4-(4-(4-(3-(2,4-dihydroxy-5-isopropylphenyl)-5-hydroxy-4H-1,2,4-triazol-4-yl)benzyl)piperazine-1-carbonyl)piperidin-1-yl)-2-ethoxyphenyl)(ethyl)amino)-5-methyl-11-(methylsulfonyl)-5,11-dihydro-6H-benzo[e]pyrimido[5,4-b][1,4]diazepin-6-one]
EC50 [1]: < 100 nM | EC50 [2]: 100 to 1000 nM

CCOc1cc(N2CCC(C(=O)N3CCC(CN4CCN(Cc5ccc(-n6c(C(=O)NC(C)C(F)(F)F)nnc6-c6cc(CC)c(OC(=O)C(C)C)cc6O)cc5)CC4)CC3)CC2)ccc1Nc1ncc2c(n1)N(S(C)(=O)=O)c1ccccc1C(=O)N2C (stereo not shown) [Compound 161, 4-(4-(4-((4-((1-(1-(3-ethoxy-4-((5-methyl-11-(methylsulfonyl)-6-oxo-6,11-dihydro-5H-benzo[e]pyrimido[5,4-b][1,4]diazepin-2-yl)amino)phenyl)piperidine-4-carbonyl)piperidin-4-yl)methyl)piperazin-1-yl)methyl)phenyl)-5-((1,1,1-trifluoropropan-2-yl)carbamoyl)-4H-1,2,4-triazol-3-yl)-2-ethyl-5-hydroxyphenyl isobutyrate]
EC50 [1]: < 100 nM | EC50 [2]: 100 to 1000 nM

CCOc1cc(N2CCC(C(=O)N3CCC(CN4CCN(Cc5ccc(-n6c(C(=O)NC(C)C(F)(F)F)nnc6-c6cc(CC)c(O)cc6OC(=O)C(C)C)cc5)CC4)CC3)CC2)ccc1Nc1ncc2c(n1)N(S(C)(=O)=O)c1ccccc1C(=O)N2C (stereo not shown) [Compound 162, 2-(4-(4-((4-((1-(1-(3-ethoxy-4-((5-methyl-11-(methylsulfonyl)-6-oxo-6,11-dihydro-5H-benzo[e]pyrimido[5,4-b][1,4]diazepin-2-yl)amino)phenyl)piperidine-4-carbonyl)piperidin-4-yl)methyl)piperazin-1-yl)methyl)phenyl)-5-((1,1,1-trifluoropropan-2-yl)carbamoyl)-4H-1,2,4-triazol-3-yl)-4-ethyl-5-hydroxyphenyl isobutyrate]
EC50 [1]: 100 to 1000 nM | EC50 [2]: 100 to 1000 nM

CCOc1cc(N2CCC(C(=O)N3CCN(Cc4ccc(-n5c(C(=O)NCCN(CC)CC)nnc5-c5cc(C(C)C)c(O)cc5O)cc4)CC3)CC2)ccc1Nc1ncc2c(n1)N(C)c1ccccc1C(=O)N2C [Compound 163, N-(2-(diethylamino)ethyl)-5-(2,4-dihydroxy-5-isopropylphenyl)-4-(4-((4-(1-(4-((5,11-dimethyl-6-oxo-6,11-dihydro-5H-benzo[e]pyrimido[5,4-b][1,4]diazepin-2-yl)amino)-3-ethoxyphenyl)piperidine-4-carbonyl)piperazin-1-yl)methyl)phenyl)-4H-1,2,4-triazole-3-carboxamide]
EC50 [1]: < 100 nM | EC50 [2]: < 100 nM

CCOc1cc(N2CCC(C(=O)N3CCN(Cc4ccc(-n5c(C(=O)NCCN(CC)CC)nnc5-c5cc(C(C)C)c(O)cc5O)cc4)CC3)CC2)ccc1Nc1ncc2c(n1)N(S(C)(=O)=O)c1ccccc1C(=O)N2C [Compound 164, N-(2-(diethylamino)ethyl)-5-(2,4-dihydroxy-5-isopropylphenyl)-4-(4-((4-(1-(3-ethoxy-4-((5-methyl-11-(methylsulfonyl)-6-oxo-6,11-dihydro-5H-benzo[e]pyrimido[5,4-b][1,4]diazepin-2-yl)amino)phenyl)piperidine-4-carbonyl)piperazin-1-yl)methyl)phenyl)-4H-1,2,4-triazole-3-carboxamide]
EC50 [1]: < 100 nM | EC50 [2]: < 100 nM

CCOc1cc(N2CCC(C(=O)NCc3ccc(CN(CC)Cc4ccc(-n5c(O)nnc5-c5cc(C(C)C)c(O)cc5O)cc4)cc3)CC2)ccc1Nc1ncc2c(n1)N(C)c1ccccc1C(=O)N2C [Compound 165, N-(4-(((4-(3-(2,4-dihydroxy-5-isopropylphenyl)-5-hydroxy-4H-1,2,4-triazol-4-yl)benzyl)(ethyl)amino)methyl)benzyl)-1-(4-((5,11-dimethyl-6-oxo-6,11-dihydro-5H-benzo[e]pyrimido[5,4-b][1,4]diazepin-2-yl)amino)-3-ethoxyphenyl)piperidine-4-carboxamide]
EC50 [1]: < 100 nM | EC50 [2]: 100 to 1000 nM

CCOc1cc(N2CCC(C(=O)NCc3ccc(CN(CC)Cc4ccc(-n5c(O)nnc5-c5cc(C(C)C)c(O)cc5O)cc4)cc3)CC2)ccc1Nc1ncc2c(n1)N(S(C)(=O)=O)c1ccccc1C(=O)N2C [Compound 166, N-(4-(((4-(3-(2,4-dihydroxy-5-isopropylphenyl)-5-hydroxy-4H-1,2,4-triazol-4-yl)benzyl)(ethyl)amino)methyl)benzyl)-1-(3-ethoxy-4-((5-methyl-11-(methylsulfonyl)-6-oxo-6,11-dihydro-5H-benzo[e]pyrimido[5,4-b][1,4]diazepin-2-yl)amino)phenyl)piperidine-4-carboxamide]
EC50 [1]: < 100 nM | EC50 [2]: 100 to 1000 nM
